Assay results reported in patent US20110206711A1, “METHOD FOR INDUCING CYTOTOXIC T-CELLS, CYTOTOXIC T-CELL INDUCER, AND PHARMACEUTICAL COMPOSITION AND VACCINE EMPLOYING SAME” (priority 2006, published 2011).
“Also recorded” adds a separate entry of the source. Ends that are not written are not given here.

These sequences were tested on HCV genome-expressing RzM6 cells (assay: Cytolysis assay against HCV genome-expressing cells). Details: RzM6 cells vs HepG2 control; E/T ratio 10; 3 hours; FIG. 4.
Type: cell-based, human
From the text: RzM6 cells were formed by transfecting HepG2, which is a human liver cell strain, with an HCV gene that had been modified so as to be able to conditionally induce expression of an HCV1b full genome (AY045702) in the presence of Cre (Activation of the CK1-CDK-Rb-E2F pathway in full genome hepatitis C virus-expressing cells. Tsukiyama-Kohara et al., J. Biol. Chem. 279, 14531-14541, 2004, RzM6 being supplied by Dr. Michinori Obara, Tokyo Metropolitan Institute of Medical Science).
In the HCV expression method, since the same RzM6 cells are doubly transfected with the Cre gene inserted in a conditional expression cassette arranged downstream of a Tamoxifen-inducible promoter, by adding tamoxifen, expression of Cre is induced, and as a result expression of the HCV gene can be induced. The RzM6 cells for which expression of the HCV gene was induced were labeled with ^51Cr by the same method as for the C1R-A24 cells, thus serving as target cells.
The cytotoxic T-cells prepared above and RzM6 target cells or HepG2 cells with no HCV introduced as a control were mixed at an E/T ratio of 10 and allowed to stand at 37° C. for 3 hours, and the radioactivity of ^51Cr released into the culture supernatant was measured.
For ALYGVYPLL [SEQ ID NO: 5], the “cytolytic activity specific to HCV-expressing cells by the cytotoxic T-cells” value (shortened to “cytolytic activity specific”) was “a cytolytic activity specific to HCV-expressing cells by the cytotoxic T-cells was exhibited”. With AYSQQTRGL [SEQ ID NO: 8] the “cytolytic activity specific” value was “a cytolytic activity specific to HCV-expressing cells by the cytotoxic T-cells was exhibited”. ILMTHFFSI [SEQ ID NO: 13] was tested, and the “cytolytic activity specific” value was “a cytolytic activity specific to HCV-expressing cells by the cytotoxic T-cells was exhibited”. With ILPCSFTTL [SEQ ID NO: 4] the “cytolytic activity specific” value was “a cytolytic activity specific to HCV-expressing cells by the cytotoxic T-cells was exhibited”. For ITYSTYCKF [SEQ ID NO: 9], the “cytolytic activity specific” value was “a cytolytic activity specific to HCV-expressing cells by the cytotoxic T-cells was exhibited”. With RYAPACKPL [SEQ ID NO: 10] the “cytolytic activity specific” value was “a cytolytic activity specific to HCV-expressing cells by the cytotoxic T-cells was exhibited”. For SYTWTGALI [SEQ ID NO: 12], the “cytolytic activity specific” value was “a cytolytic activity specific to HCV-expressing cells by the cytotoxic T-cells was exhibited”. In the case of WHYPCTVNF [SEQ ID NO: 2], the “cytolytic activity specific” value was “a cytolytic activity specific to HCV-expressing cells by the cytotoxic T-cells was exhibited”.

What follows are sequences tested against HLA-A24 molecule (product of the HLA-A*2402 gene) (Homo sapiens, UniProt P04439, D101N/D140Y/D185E/E176V/E190D/F33S/G103R/G107R/I119L/I121M/I306V/K335N/L105A/L180Q/L300P/N151K/N90K/Q86E/Q94H/R106L/R138H/R89G/T104I/T345S/V100E/W191G/Y123F) (assay: Experiment of binding peptide to HLA-A24 molecule (C1R-A24 cells, flow cytometry)). Details: not given.
For FWAKMMYNF [SEQ ID NO: 14], the “binding in HLA molecule binding experiment” value was “high binding”.

The sequences below were run on peptide-loaded C1R-A24 cells and T2-A24 cells (assay: Cytotoxic T-cell induction experiment (51Cr release, human PBMCs)). Details: peptide 1 μM; blood samples from 8 (or 7) people; E/T ratio 10 to 20; FIG. 2 and FIG. 3.
Type: cell-based
Protocol: The following experiment was carried out using a human blood sample.
Blood was sampled from a hepatitis C patient or a healthy individual from whom informed consent had been obtained in advance.
To blood cells (Peripheral blood mononuclear cells: PBMCs) sown on 96 well plates peptides of SEQ ID NOS: 1 to 14 were added weekly for 5 weeks so as to give final concentrations of 1 μM, and cytotoxic T-cells were activated in media to which was added 10% FCS and 5 ng/mL of IL-2, thus giving T-cell samples.
Cells were labeled with ^51Cr by adding the sodium salt of ^51Cr (sodium chromate) to C1R-A24 cells and T2-A24 cells (human B/T cultured cell strain having no TAP peptide transporter and expressing the HLA-A*2402 gene: supplied by Dr. Tsuboi, Faculty of Medicine, Osaka University) at 37° C. or 26° C. for 1 hour. Peptides of SEQ ID NOS: 1 to 14 were added thereto so as to make final concentrations of 1 μM, thus forming target cells having each peptide binding to the surface of the cells.
After the cytotoxic T-cells and the target cells prepared above were mixed at an E/T ratio (effector to target) of 10 to 20 and allowed to stand at 37° C. for 3.5 hours, the radioactivity of ^51Cr released in the culture supernatant was measured.
With FWAKMMYNF [SEQ ID NO: 14] the “capability of inducing cytotoxic T-cells” value was “did not show a capability of inducing cytotoxic T-cells; also recorded: none of the blood samples showed a capability of inducing cytotoxic T-cells”.
